Consider one molecule from patent publication US20110028546A1, “NOVEL ANTIMICROBIAL FORMULATIONS INCORPORATING ALKYL ESTERS OF FATTY ACIDS AND NANOEMULSIONS THEREOF” (priority 2006, published 2011).

SMILES strings stand for the structures.

Common to all, as to test: In vitro antimicrobial efficacy using time kill procedure (ASTM E 2315-03)
What all share (format): cell-based
What all share (details): 1.0% concentration

The subject of assay [1] is Candida Albicans—ATCC No. 10231. The procedure:
(§1) The following target organisms were included in the tests: E. Coli—ATCC No. 8739; Staphylococcus Aureus—ATCC No. 6538 and Candida Albicans—ATCC No. 10231. The initial inoculum counts for all the organisms were between 10^6 and 10^8 CFUs/ml.
(§2) The testing procedure was according to ASTM E 2315-03 standards and protocols. The exposure times were 2 minutes and 10 minutes. Each test concentration was tested in duplicate and each sample was plated in duplicate.
(§3) The log reduction expresses the efficacy of the antimicrobial formulation against the target organism. The final mean number of Colony Forming Units (CFUs) per ml of test solution at a given exposure time log 10 is calculated as follows:
(§4) Mean No. of CFUs/ml ═Na=C/(n×D×V)
(§5) • C=Total number of colonies counted on all plates • V=Sample volume used to prepare the pour plate (1 ml) • D=Dilution factor (0.01) • n=Number of plates taken into account • a=exposure time
(§6) The mean log reduction is calculated using the equation: […]
(§7) Mean log reduction log 10(NI×0.01)−log 10 (Na)
(§8) Where NI is the initial organism count

The next assay has as its system E. Coli—ATCC No. 8739. The procedure:
as §1, §2, §3, §4, §5, §6, §7, §8

Assay [2] relates to Staphylococcus Aureus—ATCC No. 6538. The procedure: as §1, §2, §3, §4, §5, §6, §7, §8

Consider `CC(O)C(=O)O` (stereo not drawn) [LA 88, Lactic Acid 88%], for which the “2 minute log reduction, Candida Albicans” value in assay [1] (2 minutes exposure) turned out to be 2.69. The “10 minute log reduction, Candida Albicans” value in assay [1] (10 minutes exposure) was determined as 2.79. Besides, the “2 minute log reduction, E. Coli” value in the assay on E. Coli—ATCC No. 8739 (2 minutes exposure) was determined as 2.36. Moreover, the “10 minute log reduction, E. Coli” value with E. Coli—ATCC No. 8739 (10 minutes exposure) was found to be 2.41. Besides, the “2 minute log reduction, S. Aureus” value in assay [2] (2 minutes exposure) was below 2.0. Besides, in assay [2] (10 minutes exposure), the “10 minute log reduction, S. Aureus” value is listed as below 2.0.
